From patent US9085576B2 (AMGEN INC., priority 2013, dated 2015)

Key:
Cathepsin D (Cat D) = Cathepsin D (Cat D) (Homo sapiens (Human), UniProt P07339); assay: In vitro enzymatic Cathepsin D (Cat D) FRET assay; format: biochemical; details: read-out: CatD IC50
Abeta 40 = assay: In vivo inhibition of beta-secretase: Abeta 40 reduction in CSF and brain of the rat; details: after 4 hrs; for % reduction of rat CSF levels at 10 pmk / % reduction of rat brain levels at 10 mpk: 10 mpk
Description: In Vivo Inhibition of Beta-Secretase
Several animal models, including mouse, rat, dog, and monkey, may be used to screen for inhibition of beta-secretase activity in vivo following administration of a test compound sample. […] A separate group of animals receive 2% hydroxypropyl methylcellulose, 1% Tween80 alone, containing no test compound, and serve as a vehicle-control group. At the end of the test period, animals are sacrificed and brain tissues, plasma or cerebrospinal fluid are collected. […] Homogenates are centrifuged at 355,000 g, 4° C. for 30 minutes. CSF or brain supernatants are then analyzed for the presence of A-beta peptide by specific sandwich ELISA assays based on ECL (Electrochemiluminescence) technology. For example, rat Abeta40 is measured using biotinylated-4G8 (Signet) as a capture antibody and Fab40 (an in-house antibody specific to the C-terminal of Abeta40) as a detection antibody.
Actual vehicles used: Oral: 2% HPMC, 1% Tween80, pH 2.2

BACE = BACE (Homo sapiens (Human), UniProt P56817); assay: In vitro BACE cell-based assay (Aβ40 in conditioned medium, sandwich ELISA)
Chain of BACE (P56817 46-501, species assumed): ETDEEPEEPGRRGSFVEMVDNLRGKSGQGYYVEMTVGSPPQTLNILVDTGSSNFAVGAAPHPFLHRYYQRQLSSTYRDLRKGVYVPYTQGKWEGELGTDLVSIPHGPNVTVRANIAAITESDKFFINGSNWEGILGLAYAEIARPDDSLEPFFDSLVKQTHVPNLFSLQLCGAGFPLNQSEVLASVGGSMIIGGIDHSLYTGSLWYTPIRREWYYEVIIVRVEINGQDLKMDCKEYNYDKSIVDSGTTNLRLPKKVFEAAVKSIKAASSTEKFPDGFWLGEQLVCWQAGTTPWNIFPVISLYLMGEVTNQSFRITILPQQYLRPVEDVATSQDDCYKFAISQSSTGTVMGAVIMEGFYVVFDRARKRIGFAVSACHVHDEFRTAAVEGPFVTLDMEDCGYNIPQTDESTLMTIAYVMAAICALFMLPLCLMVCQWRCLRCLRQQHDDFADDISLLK

[1] = molecular target: Beta Secretase enzyme (BACE) (Homo sapiens (Human), UniProt P56817); assay: In vitro enzymatic BACE FRET assay; format: biochemical; details: read-out: BACE1 Enzyme assay IC50
Chain of Beta Secretase enzyme (BACE) (P56817 46-501): as the sequence (P56817 46-501, species assumed) above

Chain of Cathepsin D (Cat D) (P07339 65-412, species assumed): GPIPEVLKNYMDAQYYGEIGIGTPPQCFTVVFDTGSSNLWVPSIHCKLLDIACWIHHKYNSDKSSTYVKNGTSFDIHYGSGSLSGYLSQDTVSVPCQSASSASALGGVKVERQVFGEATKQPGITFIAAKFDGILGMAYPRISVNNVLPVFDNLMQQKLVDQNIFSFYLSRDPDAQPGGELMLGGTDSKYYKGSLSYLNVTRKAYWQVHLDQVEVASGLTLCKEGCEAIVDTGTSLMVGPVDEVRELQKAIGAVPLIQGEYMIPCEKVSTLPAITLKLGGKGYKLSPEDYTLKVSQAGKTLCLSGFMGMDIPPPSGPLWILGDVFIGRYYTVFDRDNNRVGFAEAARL

| Structure (SMILES) | IC50 (Cathepsin D (Cat D)) [µM] | % reduction of rat CSF levels at 10 pmk (Abeta 40; Abeta 40 in rat CSF) [%] | % reduction of rat brain levels at 10 mpk (Abeta 40; Abeta 40 in rat brain) [%] | % reduction of rat CSF levels (3 mpk) (Abeta 40; Abeta 40 in rat CSF, 3 mpk) | % reduction of rat brain levels (3 mpk) (Abeta 40; Abeta 40 in rat brain, 3 mpk) | IC50 (BACE) [µM] | IC50 [1] [nM] |
| --- | --- | --- | --- | --- | --- | --- | --- |
| N#Cc1cnc(C(=O)Nc2ccc(F)c([C@@]3(C(F)F)N=C(N)O[C@@H]4C[C@@H]43)c2)c(Cl)c1 [Example 66, N-(3-((1R,5S,6R)-3-amino-5-(difluoromethyl)-2-oxa-4-azabicyclo[4.1.0]hept-3-en-5-yl)-4-fluorophenyl)-3-chloro-5-cyanopicolinamide] | 825 | 59 | 42 | – | – | – | – |
| NC1=N[C@@](c2cc(NC(=O)c3ncc(Cl)cc3Cl)ccc2F)(C(F)F)[C@H]2C[C@H]2O1 [Example 71, N-(3-((1R,5S,6R)-3-amino-5-(difluoromethyl)-2-oxa-4-azabicyclo[4.1.0]hept-3-en-5-yl)-4-fluorophenyl)-3,5-dichloropicolinamide] | 478 | 80 | 73 | – | – | – | – |
| N#Cc1ccc(C(=O)Nc2ccc(F)c([C@@]3(C(F)F)N=C(N)O[C@@H]4C[C@@H]43)c2)nc1 [Example 77, N-(3-((1R,5S,6R)-3-amino-5-(difluoromethyl)-2-oxa-4-azabicyclo[4.1.0]hept-3-en-5-yl)-4-fluorophenyl)-5-cyanopicolinamide] | 698 | 78 | 71 | 66 (3 mpk) % | 46 (3 mpk) % | – | – |
| N#Cc1ccc(C(=O)Nc2ccc(Cl)c([C@@]3(C(F)F)N=C(N)O[C@@H]4C[C@@H]43)c2)nc1 [Example 93, N-(3-((1R,5S,6R)-3-amino-5-(difluoromethyl)-2-oxa-4-azabicyclo[4.1.0]hept-3-en-5-yl)-4-chlorophenyl)-5-cyanopicolinamide] | 1300 | 76 | 83 | – | – | – | – |
| C#C[C@H](C)Oc1cnc(C(=O)Nc2ccc(F)c([C@@]3(C(F)F)N=C(N)O[C@@H]4C[C@@H]43)c2)cn1 [Example 162, N-(3-((1R,5S,6R)-3-amino-5-(difluoromethyl)-2-oxa-4-azabicyclo[4.1.0]hept-3-en-5-yl)-4-fluorophenyl)-5-((S)-but-3-yn-2-yloxy)pyrazine-2-carboxamide] | 1060 | 11 | −7 | – | – | – | – |
| NC1=N[C@@](c2cc(NC(=O)c3nn(C(F)F)cc3Cl)ccc2F)(C(F)F)[C@H]2C[C@H]2O1 [Example 163, N-(3-((1R,5S,6R)-3-amino-5-(difluoromethyl)-2-oxa-4-azabicyclo[4.1.0]hept-3-en-5-yl)-4-fluorophenyl)-4-chloro-1-(difluoromethyl)-1H-pyrazole-3-carboxamide] | 464 | 33 | 14 | – | – | – | – |
| NC1=N[C@@](c2cc(NC(=O)c3ncc(Br)cn3)ccc2F)(C(F)F)[C@H]2C[C@H]2O1 [Example 267, N-(3-((1R,5S,6R)-3-amino-5-(difluoromethyl)-2-oxa-4-azabicyclo[4.1.0]hept-3-en-5-yl)-4-fluorophenyl)-5-bromopyrimidine-2-carboxamide] | – | −1 | 11 | – | – | 0.015 | – |
| Cc1cc(Cl)cnc1C(=O)Nc1cc(C)c(F)c([C@@]2(C(F)F)N=C(N)O[C@@H]3C[C@@H]32)c1 [Example 303, N-(3-((1R,5S,6R)-3-amino-5-(difluoromethyl)-2-oxa-4-azabicyclo[4.1.0]hept-3-en-5-yl)-4-fluoro-5-methylphenyl)-5-chloro-3-methylpicolinamide] | 335 | 57 | 50 | – | – | – | – |
| Cc1cc(NC(=O)c2ccc(C#N)cn2)cc([C@@]2(C(F)F)N=C(N)O[C@@H]3C[C@@H]32)c1F [Example 390, N-(3-((1R,5S,6R)-3-amino-5-(difluoromethyl)-2-oxa-4-azabicyclo[4.1.0]hept-3-en-5-yl)-4-fluoro-5-methylphenyl)-5-cyanopicolinamide] | – | 71 | 54 | – | – | – | – |
| CC#Cc1cncc(-c2ccc(F)c([C@]3(C(F)F)N=C(N)O[C@H]4C[C@H]43)c2)c1 [Example 430] | 1020 | – | – | – | – | > 15.6 | > 40000 |
| CC#Cc1cnn(-c2ccc(F)c([C@@]3(C(F)F)N=C(N)O[C@@H]4C[C@@H]43)c2)c1 [Example 434, (1R,5S,6R)-5-(difluoromethyl)-5-(2-fluoro-5-(4-(prop-1-yn-1-yl)-1H pyrazol-1-yl)phenyl)-2-oxa-4-azabicyclo[4.1.0]hept-3-en-3-amine] | 386 | – | – | – | – | 0.561 | 1210 |
| NC1=N[C@@](c2cc(N3Cc4cc(Cl)cnc4C3=O)ccc2F)(C(F)F)[C@H]2C[C@H]2O1 [Example 437, 6-(3-((1R,5S,6R)-3-amino-5-(difluoromethyl)-2-oxa-4-azabicyclo[4.1.0]hept-3-en-5-yl)-4-fluorophenyl)-3-chloro-5H-pyrrolo[3,4-b]pyridin-7(6H)-one] | 659 | – | – | – | – | 0.384 | 2180 |
| COc1cnc(C(=O)Nc2cccc([C@@]3(C(F)F)N=C(N)O[C@@H]4C[C@@H]43)c2)cn1 [Example 438, N-(3-((1R,5S,6R)-3-amino-5-(difluoromethyl)-2-oxa-4-azabicyclo[4.1.0]hept-3-en-5-yl)phenyl)-5-methoxypyrazine-2-carboxamide] | 793 | – | – | – | – | 0.126 | 500 |
| NC1=N[C@@](c2cc(-c3nnc(-c4ccc(F)cc4)[nH]3)ccc2F)(C(F)F)[C@H]2C[C@H]2O1 [Example 440, (1R,5S,6R)-5-(difluoromethyl)-5-(2-fluoro-5-(5-(4-fluorophenyl)-4H-1,2,4-triazol-3-yl)phenyl)-2-oxa-4-azabicyclo[4.1.0]hept-3-en-3-amine] | 250 | – | – | – | – | > 15.6 | > 40000 |
| NC1=N[C@](CF)(c2cc(NC(=O)c3ncc(Cl)cc3CF)ccc2Cl)[C@H]2C[C@H]2O1 [Example 441, N-(3-((1R,5S,6R)-3-amino-5-(fluoromethyl)-2-oxa-4-azabicyclo[4.1.0]hept-3-en-5-yl)-4-chlorophenyl)-5-chloro-3-(fluoromethyl) picolinamide] | 444 | – | – | – | – | 0.0159 | 25.2 |
| NC1=N[C@](CF)(c2cc(NC(=O)c3ncc(Cl)cc3F)ccc2Cl)[C@H]2C[C@H]2O1 [Example 442, N-(3-((1R,5S,6R)-3-amino-5-(fluoromethyl)-2-oxa-4-azabicyclo[4.1.0]hept-3-en-5-yl)-4-chlorophenyl)-5-chloro-3-fluoropicolinamide] | 1140 | – | – | – | – | 0.0134 | 54.4 |
| Cc1cc(Cl)cnc1C(=O)Nc1ccc(Cl)c([C@@]2(CF)N=C(N)O[C@@H]3C[C@@H]32)c1 [Example 443, N-(3-((1R,5S,6R)-3-amino-5-(fluoromethyl)-2-oxa-4-azabicyclo[4.1.0]hept-3-en-5-yl)-4-chlorophenyl)-5-chloro-3-methylpicolinamide] | 517 | – | – | – | – | 0.0136 | 37.3 |
| NC1=N[C@](CF)(c2cc(NC(=O)c3ccc(F)cn3)ccc2Cl)[C@H]2C[C@H]2O1 [Example 445, N-(3-((1R,5S,6R)-3-amino-5-(fluoromethyl)-2-oxa-4-azabicyclo[4.1.0]hept-3-en-5-yl)-4-chlorophenyl)-5-fluoropicolinamide] | 1270 | – | – | – | – | 0.031 | 290 |
| N#Cc1cnc2c(Nc3ccc(F)c([C@@]4(C(F)F)N=C(N)O[C@@H]5C[C@@H]54)c3)nccc2c1 [Example 446, 8-((3-((1R,5S,6R)-3-amino-5-(difluoromethyl)-2-oxa-4-azabicyclo[4.1.0]hept-3-en-5-yl)-4-fluorophenyl)amino)-1,7-naphthyridine-3-carbonitrile] | 658 | – | – | – | – | 0.107 | 55.8 |
| COc1cnc2c(Nc3ccc(F)c([C@@]4(C(F)F)N=C(N)O[C@@H]5C[C@@H]54)c3)nccc2n1 [Example 447, (1R,5S,6R)-5-(difluoromethyl)-5-(2-fluoro-5-((2-methoxypyrido[3,4-b]pyrazin-5-yl)amino)phenyl)-2-oxa-4-azabicyclo[4.1.0]hept-3-en-3-amine] | 501 | – | – | – | – | 0.167 | 139 |
| COc1cnc2c(Nc3ccc(F)c([C@@]4(C(F)F)N=C(N)O[C@@H]5C[C@@H]54)c3)ncc(F)c2c1 [Example 448, (1R,5S,6R)-5-(difluoromethyl)-5-(2-fluoro-5-((5-fluoro-3-methoxy-1,7-naphthyridin-8-yl)amino)phenyl)-2-oxa-4-azabicyclo[4.1.0]hept-3-en-3-amine] | 169 | – | – | – | – | 0.0863 | 117 |
| NC1=N[C@@](c2cc(Nc3ncnc4cc(C(F)(F)F)cnc34)ccc2F)(C(F)F)[C@H]2C[C@H]2O1 [Example 449, (1R,5S,6R)-5-(difluoromethyl)-5-(2-fluoro-5-((7-(trifluoromethyl)pyrido[3,2-d]pyrimidin-4-yl)amino)phenyl)-2-oxa-4-azabicyclo[4.1.0]hept-3-en-3-amine] | 79.4 | – | – | – | – | 0.268 | 124 |
| N#Cc1cnc(C(=O)Nc2ccc(Cl)c([C@@]3(CF)N=C(N)O[C@@H]4C[C@@H]43)c2)c(F)c1 [Example 450, N-(3-((1R,5S,6R)-3-amino-5-(fluoromethyl)-2-oxa-4-azabicyclo[4.1.0]hept-3-en-5-yl)-4-chlorophenyl)-5-cyano-3-fluoropicolinamide] | > 400 | – | – | – | – | 0.00817 | 50.2 |
| NC1=N[C@@](c2cc(NC(=O)c3c(F)cc(F)cc3F)ccc2F)(C(F)F)[C@H]2C[C@H]2O1 [Example 451, N-(3-((1R,5S,6R)-3-amino-5-(difluoromethyl)-2-oxa-4-azabicyclo[4.1.0]hept-3-en-5-yl)-4-fluorophenyl)-2,4,6-trifluorobenzamide] | 960 | – | – | – | – | 6.28 | 5380 |
